Structures can show the parent of a compound that is named as a salt.
These compounds were tested against T1, MASP-2 (CCP1-CCP2-SP) (Homo sapiens, UniProt O00187) (assay: Enzymatic Assay for MASP-2 (fluorogenic substrate)). Conditions: fluorogenic substrate based on C2 cleavage site; room temperature, 20 min; 20 mM HEPES pH 7.4, 140 mM NaCl, 0.1% Tween 20.
T1 construct: 15 μL of Enzyme MASP-2 (CCP1-CCP2-SP) in Assay Buffer
Type: biochemical
Outline: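 Fluorogenic substrate built on the C2 cleavage site, in 20 mM HEPES pH 7.4, 140 mM NaCl, 0.1% Tween 20, run at room temperature for 20 min before an acetic acid stop. Fluorescence normalised to DMSO-only and no-enzyme controls; IC50 taken as equivalent to Ki, with tight- or slow-binding inhibitors treated separately.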

T1 sequence (O00187 445-686 limits assumed): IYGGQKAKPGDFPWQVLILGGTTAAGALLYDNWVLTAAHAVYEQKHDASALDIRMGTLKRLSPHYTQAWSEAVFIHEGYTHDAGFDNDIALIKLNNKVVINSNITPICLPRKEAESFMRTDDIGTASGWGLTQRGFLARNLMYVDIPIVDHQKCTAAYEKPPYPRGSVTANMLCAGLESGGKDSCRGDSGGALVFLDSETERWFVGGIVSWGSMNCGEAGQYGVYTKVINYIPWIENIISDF
T1 sequence (O00187 298-444 partner limits assumed): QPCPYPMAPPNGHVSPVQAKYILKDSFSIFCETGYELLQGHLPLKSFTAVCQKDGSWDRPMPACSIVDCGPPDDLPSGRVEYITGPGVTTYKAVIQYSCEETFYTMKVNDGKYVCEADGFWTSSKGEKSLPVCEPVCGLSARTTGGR

| SMILES | Ki [nM] |
| --- | --- |
| C[C@H](NC(=O)[C@H]1C[C@@H](c2ccncc2)CN1)C(=O)NCc1ccc(C(=N)N)cc1 [Compound I-95, (2R,4S)—N—((S)-1-((4-carbamimidoylbenzyl)amino)-1-oxopropan-2-yl)-4-(pyridin-4-yl)pyrrolidine-2-carboxamide di-trifluoroacetate] | 500 to 2500 |
| C[C@H](NC(=O)[C@H]1C[C@H](Oc2ccccc2)CN1)C(=O)NCc1ccc(C(=N)N)cc1 [Compound I-96, (2R,4S)—N—((S)-1-((4-Carbamimidoylbenzyl)amino)-1-oxopropan-2-yl)-4-phenoxypyrrolidine-2-carboxamide di-trifluoroacetate] | < 500 |
| C[C@H](NC(=O)[C@H]1C[C@H](Oc2ccccc2)CN1)C(=O)NCc1cc2cnccc2[nH]1 [Compound I-97, (2R,4S)—N—((S)-1-(((1H-Pyrrolo[3,2-c]pyridin-2-yl)methyl)amino)-1-oxopropan-2-yl)-4-phenoxypyrrolidine-2-carboxamide di-trifluoroacetate] | < 500 |
| C[C@H](NC(=O)[C@H]1C[C@@H](c2ccccc2)CCN1)C(=O)NCc1cc2c(s1)CNC2 [Compound I-98, (2R,4S)—N—((S)-1-(((5,6-Dihydro-4H-Thieno[2,3-C]Pyrrol-2-Yl)Methyl)Amino)-1-Oxopropan-2-Yl)-4-Phenylpiperidine-2-Carboxamide Di-Trifluoroacetate Salt] | < 500 |
| C[C@H](NC(=O)[C@H]1C[C@H](Cc2ccccc2)CN1)C(=O)NCc1cc2c(s1)CNC2 [Compound I-99, (2R,4S)-4-Benzyl-N—((S)-1-(((5,6-Dihydro-4H-Thieno[2,3-C]Pyrrol-2-Yl)Methyl)Amino)-1-Oxopropan-2-Yl)Pyrrolidine-2-Carboxamide Di-Trifluoroacetate Salt] | < 500 |
| C[C@H](NC(=O)c1cc(Cc2ccc(-c3ccccc3)cc2)c[nH]1)C(=O)NCc1ccc(C(=N)N)cc1 [Compound I-100, (S)-4-([1,1′-Biphenyl]-4-ylmethyl)-N-(1-((4-carbamimidoylbenzyl)amino)-1-oxopropan-2-yl)-1H-pyrrole-2-carboxamide trifluoroacetate] | < 500 |
| C[C@H](NC(=O)[C@H]1C[C@@H](c2ccc(-c3cccnc3)cc2)CCN1)C(=O)NCc1cc(Cl)ccc1-n1cnnn1 [Compound I-101, (2R,4S)—N—((S)-1-((5-chloro-2-(1H-tetrazol-1-yl)benzyl)amino)-1-oxopropan-2-yl)-4-(4-(pyridin-3-yl)phenyl)piperidine-2-carboxamide trifluoroacetate] | < 500 |
| C[C@H](NC(=O)[C@H]1C[C@@H](c2ccc(-c3ccccc3)cc2)CCN1)C(=O)NCc1cc(Cl)ccc1-n1cnnn1 [Compound I-102, (2R,4S)-4-([1,1′-Biphenyl]-4-yl)-N—((S)-1-((5-chloro-2-(1H-tetrazol-1-yl)benzyl)amino)-1-oxopropan-2-yl)piperidine-2-carboxamide trifluoroacetate] | < 500 |
| O=C(NCc1cc(Cl)ccc1-n1cnnn1)[C@@H]1CCN1C(=O)[C@H]1C[C@@H](c2ccc(-c3ccccc3)cc2)CCN1 [Compound I-103, (S)-1-((2R,4S)-4-([1,1′-Biphenyl]-4-yl)piperidine-2-carbonyl)-N-(5-chloro-2-(1H-tetrazol-1-yl)benzyl)azetidine-2-carboxamide trifluoroacetate] | < 500 |
| CCOC(=O)CCN1CC[C@H](c2ccccc2)C[C@@H]1C(=O)N[C@@H](C)C(=O)NCc1cc2cnccc2[nH]1 [Compound I-106, Ethyl 3-((2R,4S)-2-(((S)-1-(((1H-pyrrolo[3,2-c]pyridin-2-yl)methyl)amino)-1-oxopropan-2-yl)carbamoyl)-4-phenylpiperidin-1-yl)propanoate] | < 500 |
| C[C@H](NC(=O)[C@H]1C[C@@H](c2ccccc2)CCN1CCC(=O)O)C(=O)NCc1cc2cnccc2[nH]1 [Compound I-107, 3-((2R,4S)-2-(((S)-1-(((1H-pyrrolo[3,2-c]pyridin-2-yl)methyl)amino)-1-oxopropan-2-yl)carbamoyl)-4-phenylpiperidin-1-yl)propanoic acid di-trifluoroacetate salt] | < 500 |

From patent US12486278B2, “MASP-2 inhibitors and methods of use” (Omeros Corporation, priority 2019, dated 2025)
